Reference: US8802597B2, “Herbicidal pyrimidines” (E I du Pont de Nemours and Company, priority 2003, dated 2014)

How the values were obtained:
Experiment in all cases: Test C pre/postemergence
Type in all cases: in vivo
[1] = test system: pigweed (Amaranthus retroflexus); details: Postemergence; for Pigweed plant response rating: scale 0 to 100 (0 no effect, 100 complete control); for Plant response rating, Pigweed: scale 0 to 100
Summary of the method: (§1)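 Percent control is a visual rating (0 none, 100 complete) taken against untreated plants after 12 to 14 days of greenhouse growth. Applications were made preemergence to seeded pots and postemergence to plants at the 1- to 4-leaf stage, in a non-phytotoxic surfactant-containing solvent.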

[2] = test system: crabgrass (Digitaria sanguinalis); details: Postemergence; for Crabgrass plant response rating: scale 0 to 100 (0 no effect, 100 complete control); for Plant response rating, Crabgrass: scale 0 to 100
Summary of the method: as §1

[3] = test system: goosegrass (Eleusine indica); details: Postemergence; for Goosegrass plant response rating: scale 0 to 100 (0 no effect, 100 complete control); for Plant response rating, Goosegrass: scale 0 to 100
Summary of the method: as §1

[4] = test system: common ragweed (Ambrosia elatior); details: Postemergence; for Ragweed plant response rating: scale 0 to 100 (0 no effect, 100 complete control); for Plant response rating, Ragweed: scale 0 to 100
Summary of the method: as §1

[5] = test system: corn (Zea mays); details: Postemergence; for Plant response rating, Corn: scale 0 to 100; for Corn plant response rating: scale 0 to 100 (0 no effect, 100 complete control)
Summary of the method: as §1

[6] = test system: lambsquarters (Chenopodium album); details: Postemergence; for Lambsquarters plant response rating: scale 0 to 100 (0 no effect, 100 complete control); for Plant response rating, Lambsquarters: scale 0 to 100
Summary of the method: as §1

[7] = test system: cocklebur (Xanthium strumarium); details: Postemergence; for Cocklebur plant response rating: scale 0 to 100 (0 no effect, 100 complete control); for Plant response rating, Cocklebur: scale 0 to 100
Summary of the method: as §1

[8] = test system: kochia (Kochia scoparia); details: Postemergence; for Kochia plant response rating: scale 0 to 100 (0 no effect, 100 complete control); for Plant response rating, Kochia: scale 0 to 100
Summary of the method: as §1

[9] = test system: velvetleaf (Abutilon theophrasti); details: Postemergence; for Velvetleaf plant response rating: scale 0 to 100 (0 no effect, 100 complete control); for Plant response rating, Velvetleaf: scale 0 to 100
Summary of the method: as §1

[10] = test system: yellow nutsedge (Cyperus esculentus); details: Postemergence; for Nutsedge, Yellow plant response rating: scale 0 to 100 (0 no effect, 100 complete control); for Plant response rating, Nutsedge, Yellow: scale 0 to 100
Summary of the method: as §1

[11] = test system: Surinam grass (Brachiaria decumbens); details: Postemergence; for Surinam Grass plant response rating: scale 0 to 100 (0 no effect, 100 complete control); for Plant response rating, Surinam Grass: scale 0 to 100
Summary of the method: as §1

SMILES: Nc1nc(-c2ccc(Cl)cc2)nc(C(=O)O)c1Br [Compound 88]
- Plant response rating (scale of 0 to 100), Pigweed ([1]; 31 g ai/ha): 95
- Plant response rating (scale of 0 to 100), Pigweed ([1]; 62 g ai/ha): 100
- Pigweed plant response rating ([1]; 125 g ai/ha): 100
- Plant response rating, Pigweed ([1]; 250 g ai/ha): 100
- Plant response rating (scale of 0 to 100), Crabgrass ([2]; 31 g ai/ha): 75
- Plant response rating (scale of 0 to 100), Crabgrass ([2]; 62 g ai/ha): 80
- Crabgrass plant response rating ([2]; 125 g ai/ha): 80
- Plant response rating, Crabgrass ([2]; 250 g ai/ha): 85
- Plant response rating (scale of 0 to 100), Goosegrass ([3]; 31 g ai/ha): 50
- Plant response rating (scale of 0 to 100), Goosegrass ([3]; 62 g ai/ha): 75
- Goosegrass plant response rating ([3]; 125 g ai/ha): 75
- Plant response rating, Goosegrass ([3]; 250 g ai/ha): 80
- Plant response rating (scale of 0 to 100), Ragweed ([4]; 31 g ai/ha): 90
- Plant response rating (scale of 0 to 100), Ragweed ([4]; 62 g ai/ha): 100
- Ragweed plant response rating ([4]; 125 g ai/ha): 100
- Plant response rating, Ragweed ([4]; 250 g ai/ha): 100
- Plant response rating (scale of 0 to 100), Corn ([5]; 31 g ai/ha): 0
- Plant response rating (scale of 0 to 100), Corn ([5]; 62 g ai/ha): 0
- Plant response rating, Corn ([5]; 250 g ai/ha): 30
- Plant response rating (scale of 0 to 100), Lambsquarters ([6]; 31 g ai/ha): 90
- Plant response rating (scale of 0 to 100), Lambsquarters ([6]; 62 g ai/ha): 95
- Lambsquarters plant response rating ([6]; 125 g ai/ha): 95
- Plant response rating, Lambsquarters ([6]; 250 g ai/ha): 100
- Plant response rating (scale of 0 to 100), Cocklebur ([7]; 31 g ai/ha): 90
- Plant response rating (scale of 0 to 100), Cocklebur ([7]; 62 g ai/ha): 90
- Cocklebur plant response rating ([7]; 125 g ai/ha): 90
- Plant response rating, Cocklebur ([7]; 250 g ai/ha): 90
- Plant response rating (scale of 0 to 100), Kochia ([8]; 31 g ai/ha): 85
- Plant response rating (scale of 0 to 100), Kochia ([8]; 62 g ai/ha): 95
- Kochia plant response rating ([8]; 125 g ai/ha): 95
- Plant response rating, Kochia ([8]; 250 g ai/ha): 95
- Plant response rating (scale of 0 to 100), Velvetleaf ([9]; 31 g ai/ha): 85
- Plant response rating (scale of 0 to 100), Velvetleaf ([9]; 62 g ai/ha): 90
- Velvetleaf plant response rating ([9]; 125 g ai/ha): 95
- Plant response rating, Velvetleaf ([9]; 250 g ai/ha): 95
- Plant response rating (scale of 0 to 100), Nutsedge, Yellow ([10]; 31 g ai/ha): 40
- Plant response rating (scale of 0 to 100), Nutsedge, Yellow ([10]; 62 g ai/ha): 45
- Nutsedge, Yellow plant response rating ([10]; 125 g ai/ha): 55
- Plant response rating, Nutsedge, Yellow ([10]; 250 g ai/ha): 75
- Plant response rating (scale of 0 to 100), Surinam Grass ([11]; 31 g ai/ha): 45
- Plant response rating (scale of 0 to 100), Surinam Grass ([11]; 62 g ai/ha): 60
- Surinam Grass plant response rating ([11]; 125 g ai/ha): 80
- Plant response rating, Surinam Grass ([11]; 250 g ai/ha): 85

SMILES: CCOC(=O)c1nc(-c2ccc(Cl)cc2)nc(N)c1Br [Compound 37]
- Pigweed plant response rating ([1]; 62 g ai/ha): 0
- Pigweed plant response rating ([1]; 125 g ai/ha): 95
- Plant response rating, Pigweed ([1]; 250 g ai/ha): 100
- Plant response rating, Pigweed ([1]; 500 g ai/ha): 100
- Crabgrass plant response rating ([2]; 62 g ai/ha): 0
- Crabgrass plant response rating ([2]; 125 g ai/ha): 15
- Plant response rating, Crabgrass ([2]; 250 g ai/ha): 40
- Plant response rating, Crabgrass ([2]; 500 g ai/ha): 60
- Goosegrass plant response rating ([3]; 62 g ai/ha): 0
- Goosegrass plant response rating ([3]; 125 g ai/ha): 0
- Plant response rating, Goosegrass ([3]; 250 g ai/ha): 0
- Plant response rating, Goosegrass ([3]; 500 g ai/ha): 0
- Ragweed plant response rating ([4]; 62 g ai/ha): 0
- Ragweed plant response rating ([4]; 125 g ai/ha): 80
- Plant response rating, Ragweed ([4]; 250 g ai/ha): 90
- Plant response rating, Ragweed ([4]; 500 g ai/ha): 95
- Corn plant response rating ([5]; 62 g ai/ha): 0
- Corn plant response rating ([5]; 125 g ai/ha): 10
- Plant response rating, Corn ([5]; 250 g ai/ha): 15
- Plant response rating, Corn ([5]; 500 g ai/ha): 25
- Lambsquarters plant response rating ([6]; 62 g ai/ha): 0
- Lambsquarters plant response rating ([6]; 125 g ai/ha): 95
- Plant response rating, Lambsquarters ([6]; 250 g ai/ha): 95
- Plant response rating, Lambsquarters ([6]; 500 g ai/ha): 95
- Cocklebur plant response rating ([7]; 62 g ai/ha): 0
- Cocklebur plant response rating ([7]; 125 g ai/ha): 95
- Plant response rating, Cocklebur ([7]; 250 g ai/ha): 95
- Plant response rating, Cocklebur ([7]; 500 g ai/ha): 95
- Kochia plant response rating ([8]; 62 g ai/ha): 0
- Kochia plant response rating ([8]; 125 g ai/ha): 90
- Plant response rating, Kochia ([8]; 250 g ai/ha): 95
- Plant response rating, Kochia ([8]; 500 g ai/ha): 95
- Velvetleaf plant response rating ([9]; 62 g ai/ha): 0
- Velvetleaf plant response rating ([9]; 125 g ai/ha): 85
- Plant response rating, Velvetleaf ([9]; 250 g ai/ha): 90
- Plant response rating, Velvetleaf ([9]; 500 g ai/ha): 95
- Nutsedge, Yellow plant response rating ([10]; 62 g ai/ha): 0
- Nutsedge, Yellow plant response rating ([10]; 125 g ai/ha): 0
- Plant response rating, Nutsedge, Yellow ([10]; 250 g ai/ha): 0
- Plant response rating, Nutsedge, Yellow ([10]; 500 g ai/ha): 20
- Surinam Grass plant response rating ([11]; 62 g ai/ha): 0
- Surinam Grass plant response rating ([11]; 125 g ai/ha): 0
- Plant response rating, Surinam Grass ([11]; 250 g ai/ha): 0
- Plant response rating, Surinam Grass ([11]; 500 g ai/ha): 0
